Patent publication US20230021957A1, “USE OF PSILOCIN, […] ANALOGS THEREOF IN WEIGHT LOSS, TREATMENT OF OBESITY AND COMPULSIVE EATING DISORDER” (NEONMIND BIOSCIENCES INC., priority 2019, published 2023)

Tests used:
[1] = Weight loss in obese males, gel tabs on weekdays for 2 months; assay type: in vivo, human; settings: 2.5 mg gel tab every morning on weekdays
Procedure: 12 males all weighing between 250 and 275 lbs and all having BMI indexes between 30 and 35 kg/m^2 are split into two groups. The first is provided with placebo gel tabs; the second with indistinguishable gel tabs containing 2.5 mg of purified synthetically produced psilocin in a pharmaceutically acceptable carrier. Both groups are instructed to take one gel tab every morning, before breakfast, on weekdays, with weekends off, for 2 months. At the end of the two months, the first (placebo) group is found to have a similar weight as before the treatment, whereas the treatment group loses an average of 12 lbs each.

[2] = system: compulsive eating disorder; experiment: Self-reported instances of compulsive eating over two months; settings: once a day with breakfast for two months; compared to first two months without treatment
[3] = Weight gain of rats on a high calorie diet, once daily psilocybin for five days; assay type: in vivo, Sprague-Dawley rats; settings: for total weight gain over the 5 day period: control 27.8
Procedure: In order to determine whether psilocybin has anorectic—and therefore weight loss—properties, a preclinical study of the drug was conducted, using a well-validated animal model. Rodent models of food consumption and weight gain have a strong homology with humans, as rodents are omnivores with a very similar metabolic physiology. […] The goal of the present study was to cause accelerated weight gain with a high calorie diet, consisting of a highly palatable food with a large proportion of fat and carbohydrate, compared to standard animal food, which is designed to maintain a healthy weight. We evaluated whether treatment with two different doses of psilocybin could reduce the accelerated weight gain caused by this diet.
Adult, male Sprague-Dawley rats were purchased from the animal supplier, and then housed in pairs in polycarbonate cages, with access to water and standard rat food ad libitum. Rats were given a period of time to acclimate to the animal colony. They were then all given unlimited access to a highly palatable diet that is very high in carbohydrate and fat (consisting predominantly of a hazelnut-flavored chocolate spread combined with peanut butter) that has been used routinely in multiple published studies with rats to study rapid weight gain (Hansen et al., Acta pharmacologica Sinica. 2012; 33(2):194-200). Animals were randomly assigned to one of three treatment groups, which consisted of once daily administration of either a lower dose (5 mg/kg; n=7 animals) of psilocybin, a higher dose (20 mg/kg; n=7 animals) of psilocybin, or no psilocybin (n=12 animals). The psilocybin was supplied by the Katz Group at the University of Alberta, and was legally approved by an exemption from Health Canada.
Rats were administered the drug approximately two hours before the lights went off in the animal colony, which is when feeding typically commences. Animals were free to consume as much of the regular rat food or high calorie diet as they wished. They were weighed each day prior to drug treatment, to determine how much weight had been gained in the previous 24 hours. The study administered the drug over five consecutive days. Data were statistically analyzed by (SPSS Version 24 software package) using a one-way Analysis of Variance (ANOVA) with a LSD-post hoc test to detect between-group differences.

Structure (SMILES) | fasting glucose levels [1] | insulin resistance [1] | levels of hypertension [1] | lipid count in the blood stream [1] | average weight loss ([1]; males 250-275 lbs, BMI 30-35) [lbs] | self-reported instances of compulsive eating [2] | reduction in weight gain vs control ([3]; 5 mg/kg once daily, 5 days) [%] | total weight gain over the 5 day period ([3]; 5 mg/kg once daily) [grams] | cumulative weight gain, day-by-day comparison with controls ([3]; 20 mg/kg) | relative weight gain, day-by-day comparison with controls ([3]; 20 mg/kg) | reduction in weight gain vs control ([3]; 20 mg/kg once daily, 5 days) [%] | total weight gain over the 5 day period ([3]; 20 mg/kg once daily) [grams] | decrease of weight gain (summary) ([3]; both doses of psilocybin) | total relative weight gain (relative to baseline weight) ([3]; both psilocybin groups (5 and 20 mg/kg), 5 days, controls 8.4%) [%] | decrease in relative weight gain vs controls ([3]; both psilocybin groups (5 and 20 mg/kg), 5 days, p=0.01) [%] | relative weight gain, day-by-day comparison with controls ([3]; both psilocybin groups (5 and 20 mg/kg), p<0.05) | weight gain per day ([3]; both psilocybin-treated groups (5 and 20 mg/kg once daily), control 5-8) | cumulative weight gain, day-by-day comparison with controls ([3]; both psilocybin-treated groups (5 and 20 mg/kg))
CN(C)CCc1c[nH]c2cccc(O)c12 [psilocin, 4-hydroxy-N,N-dimethyltryptamine] | lower fasting glucose levels | decreased insulin resistance | lower levels of hypertension | lower lipid count in the blood stream | 12 | – | – | – | – | – | – | – | – | – | – | – | – | –
CN(C)CCc1c[nH]c2cccc(OP(=O)(O)O)c12 [psilocybin] | – | – | – | – | – | decrease in compulsive eating | 31 | 19.4 | significantly reduced weight gain compared to controls by Day 3 | gained statistically less relative weight by day 3 | 28 | 20.1 | approximately one third | 5.7 | 32 | gained less relative weight by day 4 | 1-8 grams per day | significantly decreased weight gain compared to controls
